According to patent publication US8980823B2, “Formulations of Factor VIIa inhibitors and utility” (priority 2012, dated 2015):
Entries after “also recorded” stand apart in the source; their conditions may differ.

Test system: Laser-induced CNV
Experiment: Laser-induced Choroidal Neovascularization (CNV) model
Format: in vivo, brown Norway rats
Settings: single i-v injection on D0, evaluated D10; r-TFPI 0.2 ug; VIIa-i (Compound A-NO NP) 5.08 ug
Experimental: For Choroidal Neovascularization (CNV) induction in rats, brown Norway rats were anesthetized and pupils dilated. Argon red laser photocoagulation (50-um spot size, 0.05 sec duration) was used to generate 4 laser spots for each eye surrounding the optic nerve. A bubble forms at the laser spot indicating rupture of Bruch's membrane. The laser spots were evaluated for the presence of CNV on day 10 after laser treatment using confocal microscopy. Administration of test compounds: Immediately after CNV induction, test compounds were given once by intravitreal injection, i-v (VIIa-i versus r-TFPI). For characterization of efficacy in preventing laser-induced CNV in the eyes of rats, the incidence of CNV-positive or CNV-negative spots was determined by confocal microscopy. Rats were perfused with a FITC-dextran solution just prior to sacrifice. After the eyes were excised and choroidal flat mounts prepared, the mounts were stained with a mAb against mouse or rat elastin and then with CY3-conjugated secondary antibody. The prominent neovascular growth stains green whereas the underlying elastin in the Bruch's membrane stains red within the laser spot. The inhibition of new vessel growth is indicated by the absence of vessels with a green stain, and the size of the CNV is measured using Image Pro plus Software. […] Animals were sacrificed on D10, and CNV evaluated as described in methods.

Substance: r-TFPI: recombinant tissue factor pathway inhibitor
- inhibition of laser-induced CNV: highly effective in inhibiting laser-induced CNV; also recorded: significant reduction in neovascular growth
